# Values joined by “and” are separate entries in the source; they are usually repeats but may differ in a detail not shown here. Equal values may be shown once. Read-outs that look alike come from different tables or passages of the source.
# Legend:
# OATP1B1 [1] = target: T1, OATP1B1 (Homo sapiens, UniProt Q9Y6L6); test: Preincubation-induced trans-inhibition of OATP1B1-mediated [3H]-E217βG transport in HEK293-FLAG-OATP1B1 cells; assay type: cell-based; set-up: expressed in transfected cells; conditions: for IC50: washing, [3H]-E217βG 1 µM 2 min without inhibitor, HEK293-FLAG-OATP1B1, read-out: Preincubation IC50 against OATP1B1
# T1 sequence (Q9Y6L6 1-691): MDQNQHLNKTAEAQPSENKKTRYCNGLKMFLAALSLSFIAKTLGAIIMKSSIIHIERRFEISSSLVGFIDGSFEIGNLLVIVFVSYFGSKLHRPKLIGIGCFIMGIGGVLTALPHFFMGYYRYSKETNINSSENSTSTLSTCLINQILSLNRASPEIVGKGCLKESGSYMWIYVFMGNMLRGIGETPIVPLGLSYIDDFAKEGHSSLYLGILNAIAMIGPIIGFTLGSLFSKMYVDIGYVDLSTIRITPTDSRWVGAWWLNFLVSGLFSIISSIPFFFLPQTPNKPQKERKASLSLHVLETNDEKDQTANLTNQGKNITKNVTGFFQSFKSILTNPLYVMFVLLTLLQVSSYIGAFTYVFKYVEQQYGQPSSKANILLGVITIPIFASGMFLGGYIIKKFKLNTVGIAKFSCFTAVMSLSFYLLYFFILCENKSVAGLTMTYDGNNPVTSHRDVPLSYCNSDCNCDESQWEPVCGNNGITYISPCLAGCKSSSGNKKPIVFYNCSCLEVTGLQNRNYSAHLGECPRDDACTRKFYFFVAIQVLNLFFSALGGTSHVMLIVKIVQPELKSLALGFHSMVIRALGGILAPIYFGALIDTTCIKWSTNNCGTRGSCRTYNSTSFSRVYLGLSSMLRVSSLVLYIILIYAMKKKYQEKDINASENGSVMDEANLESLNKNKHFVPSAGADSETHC
# From the text: The IC50 values were estimated by nonlinear regression using the three-parameter model as below with GraphPad Prism v.9.0 (GraphPad Software, La Jolla, CA, USA). E = Bottom + (Top − Bottom)/(1 + (C/IC50))
# OATP1B3 [2] = target: T2, OATP1B3 (Homo sapiens, UniProt Q9NPD5); test: Preincubation-induced trans-inhibition of OATP1B3-mediated [3H]-CCK-8 transport in HEK293-FLAG-OATP1B3 cells; assay type: cell-based; conditions: preincubation 10–60 min with tacrolimus 1–10 µM; greatest reduction
# T2 construct: expressed in transfected cells
# T2 sequence (Q9NPD5 1-702): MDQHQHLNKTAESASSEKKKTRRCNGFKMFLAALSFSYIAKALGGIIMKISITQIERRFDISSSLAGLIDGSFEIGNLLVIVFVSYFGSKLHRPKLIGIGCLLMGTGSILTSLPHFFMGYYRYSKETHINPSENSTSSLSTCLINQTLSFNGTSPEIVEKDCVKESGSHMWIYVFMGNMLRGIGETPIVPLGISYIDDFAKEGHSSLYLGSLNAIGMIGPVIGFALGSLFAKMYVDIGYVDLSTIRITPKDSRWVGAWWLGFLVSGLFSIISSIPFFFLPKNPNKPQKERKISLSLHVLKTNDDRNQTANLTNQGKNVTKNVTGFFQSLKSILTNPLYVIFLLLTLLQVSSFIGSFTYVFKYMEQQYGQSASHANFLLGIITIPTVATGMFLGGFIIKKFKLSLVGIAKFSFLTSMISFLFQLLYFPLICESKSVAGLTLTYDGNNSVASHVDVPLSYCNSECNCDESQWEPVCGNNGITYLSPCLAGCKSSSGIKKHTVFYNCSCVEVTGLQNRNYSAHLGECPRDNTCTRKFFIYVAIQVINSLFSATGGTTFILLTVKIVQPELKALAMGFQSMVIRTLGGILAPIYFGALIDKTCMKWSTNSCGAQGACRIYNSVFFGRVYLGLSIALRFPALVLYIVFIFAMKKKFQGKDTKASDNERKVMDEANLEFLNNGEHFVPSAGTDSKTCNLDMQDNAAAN
# Experimental: (§1) HEK293-FLAG-OATP1B1 and HEK293-FLAG-OATP1B3 cells were seeded at a density of 1.5 × 10^5 cells per well of 24-well plate coated with poly-L-lysine and allowed to grow for 48 h to confluence before uptake studies were performed as published previously; the preincubation effects on OATP1B1- and OATP1B3-mediated transport were also determined as previously published. […] After washing three times with HBSS buffer (pH 7.4), substrate accumulation was determined in the absence of inhibitors. [^3H]-E217βG (1 µM, 2 min) and [^3H]-E1S (1 µM, 2 min) were used as probe substrates for OATP1B1; [^3H]-CCK-8 (1 µM, 3 min) was used as the probe substrate for OATP1B3, similar to previous publications. [^3H]-pitavastatin accumulation (1 µM, 30 s) in human SCH was conducted on day 2 of culture as has been published previously. Substrate accumulation was determined by scintillation counting (LS6500 scintillation counter, Beckman Coulter, Brea, CA) and normalized to a protein concentration determined via BCA assay (Pierce Chemical, Rockford, IL, USA). Transport assays on a blank plate without cells were conducted to correct for the nonspecific binding to the assay plate.
# human SCH = test: [3H]-pitavastatin accumulation in human sandwich-cultured hepatocytes after inhibitor preincubation and washing; assay type: cell-based; conditions: 10 µM
# Experimental: Fresh primary human hepatocytes were purchased from Lonza Walkersville, Inc. (Walkersville, MD, USA). Donor information is provided in Supplementary Table S1. Cell viability was 96% after centrifugation. Culture of human SCH was performed as described previously. In brief, on day 1, cells were plated at 3 × 10^5 cells per well in 24-well Biocoat™ plates (Thermo Fisher Scientific, Waltham, MA, USA). When cells had attached to the plate after 6 h of seeding, cells were overlaid with Matrigel™ (Thermo Fisher Scientific, Waltham, MA, USA) (0.25 mg/mL) in feeding medium: phenol red-free DMEM supplemented with 2 mM L-glutamine, 1% (v/v) MEM NEAA, 100 units/mL of penicillin G sodium, 100 µg/mL of streptomycin sulfate, 0.1 μM dexamethasone, and 1% (v/v) ITS^+ premix. Uptake experiments were conducted on day two of culture, the next day after seeding.
# OATP1B3 [3] = target: T2, OATP1B3; set-up: method as in PMID 22240838; conditions: cited from earlier work
# [4] = cited from earlier work
# OATP1B1 [5] = target: T1, OATP1B1; conditions: E1S as substrate; cited from earlier work
# OATP1B1 [6] = target: T1, OATP1B1; test: Preincubation-induced trans-inhibition of OATP1B1-mediated [3H]-E1S transport in HEK293-FLAG-OATP1B1 cells; assay type: cell-based; set-up: expressed in transfected cells; conditions: E1S 1 µM, 2 min
# Experimental: as §1
structure (smiles),measurement,setting,value
C/C=C/C[C@@H](C)[C@@H](O)[C@H]1C(=O)N[C@@H](CC)C(=O)N(C)[C@H](SCCN(C)C)C(=O)N(C)[C@@H](CC(C)(C)O)C(=O)N[C@@H](C(C)C)C(=O)N(C)[C@@H](CC(C)C)C(=O)N[C@@H](C)C(=O)N[C@H](C)C(=O)N(C)[C@@H](CC(C)C)C(=O)N(C)[C@@H](CC(C)C)C(=O)N(C)[C@@H](C(C)C)C(=O)N1C [SCY-635],IC50,OATP1B1 [1]; 10 min preincubation (0.001–10 µM),~9.4 µM and 9.4 µM
same,IC50,OATP1B1 [1]; 30 min preincubation (0.001–10 µM),~3.1 µM and 3.1 µM
same,IC50,OATP1B1 [1]; 60 min preincubation (0.001–10 µM),2.2 ± 1.4 µM
same,"IC50 against OATP1B1, fold greater than that of CsA","OATP1B1 [1]; 60 min preincubation, SCY-635 IC50 versus CsA IC50",~ 18 fold
same,"Preincubation IC50 at 30 min, fold higher than IC50 at 60 min preincubation","OATP1B1 [1]; OATP1B1, 30 min versus 60 min preincubation",1.4 fold
same,Effect of preincubation on OATP1B1-mediated transport,"OATP1B1 [1]; SCY-635, all preincubation times, only at 5 and 10 µM, p < 0.00001",significantly reduced
C=CC[C@@H]1/C=C(\C)C[C@H](C)C[C@H](OC)[C@H]2O[C@@](O)(C(=O)C(=O)N3CCCC[C@H]3C(=O)O[C@H](/C(C)=C/[C@@H]3CC[C@@H](O)[C@H](OC)C3)[C@H](C)[C@@H](O)CC1=O)[C@H](C)C[C@@H]2OC [tacrolimus],"OATP1B3-mediated transport, reduced up to, fold compared to the control",OATP1B3 [2],0.20 ± 0.02 fold compared to the control
same,"[3H]-pitavastatin accumulation after washout (long-lasting inhibition), fold that of the control",human SCH,0.59 ± 0.09 fold that of the control
same,"[3H]-pitavastatin accumulation, fold that of the control","human SCH; human SCH, 1 h preincubation, washing, pitavastatin 1 µM, 0.5 min, N = 1 donor",0.58 ± 0.07 fold that of the control
same,Preincubation-induced trans-inhibition against OATP1B3,OATP1B3 [3],no preincubation-induced trans-inhibition
same,DDI against atorvastatin,[4],does not cause DDIs
same,DDI against simvastatin,[4],does not cause DDIs
same,Increase of AUC of cerivastatin,"[4]; long-term tacrolimus treatment, renal transplant recipients",1.5 fold
same,Increase of AUC of pravastatin,"[4]; long-term tacrolimus treatment, two pediatric and adolescent cardiac transplant recipients",~ 10 fold
same,Preincubation-induced trans-inhibition against OATP1B1,OATP1B1 [5],no preincubation-induced trans-inhibition
same,"OATP1B1-mediated transport, reduced up to, fold compared to the control","OATP1B1 [1]; preincubation 10–60 min with tacrolimus 1–10 µM, greatest reduction",0.18 ± 0.03 fold compared to the control
same,"OATP1B1-mediated transport of [3H]-E1S, fold that of the control","OATP1B1 [6]; 1 µM preincubation, 10 min",0.85 ± 0.02 fold that of the control
same,"OATP1B1-mediated transport of [3H]-E1S, fold that of the control","OATP1B1 [6]; 1 µM preincubation, 30 min",0.88 ± 0.04 fold that of the control
same,"OATP1B1-mediated transport of [3H]-E1S, fold that of the control","OATP1B1 [6]; 10 µM preincubation, 10 min",0.59 ± 0.04 fold that of the control
same,"OATP1B1-mediated transport of [3H]-E1S, fold that of the control","OATP1B1 [6]; 10 µM preincubation, 30 min",0.59 ± 0.05 fold that of the control
same,"OATP1B1-mediated transport of [3H]-E1S, fold that of the control","OATP1B1 [6]; 10 µM preincubation, 60 min",0.55 ± 0.04 fold that of the control

# From publication PMC10818623, “Assessing Trans-Inhibition of OATP1B1 and OATP1B3 by Calcineurin and/or PPIase Inhibitors and Global Identification of OATP1B1/3-Associated Proteins” (Pharmaceutics, 2023)
